Data set [1] in a line: Chemical stability of Creatine forms in solution. Format: physicochemical. The following applies: for pH of samples, initial: start of storage; for degradation rate constant (k): ~10 mg/ml. On the procedure:
Methods: A known concentration (˜10 mg/ml) of CN, CM and BC were prepared in both pH 2.5 and pH 6.8 buffer and stored in stability chambers in screw-capped bottles at 37° C. and 40° C., respectively. Samples were collected at predetermined time points and analyzed for Creatine and degradation products if any, using a validated HPLC method. Changes in the pH, clarity and color of the samples were also determined. The order of degradation and rate constant were determined by graphical method. Results: The degradation rate constants (k) for CN, CM and BC at 37° C. in pH 2.5 buffer were 0.075±0.001, 0.119±0.011 and 0.108±0.002 (day-1) while that at 40° C. in pH 6.8 buffer were 0.115±0.001, 0.015±0.001 and 0.013±0.002 (day-1), respectively. The pH of CN samples at 40° C. in pH 6.8 buffer changed from 2.83±0.01 to 4.31±0.01 within a period of 12 days. The pH changes noticed at 37° C. in pH 2.5 buffer samples over the same period of time for CM, and BC were 3.08±0.01 to 4.12±0.01 and 3.11±0.01 and 4.16±0.01, respectively. […] No change in the color and the clarity was noticed over 12 days. Conclusions: All the Creatine samples followed first order degradation kinetics under both these experimental conditions. […] The major degradation product detected was Creatinine. For CN the increase in pH was higher at 40° C. in pH 6.8 buffer as compared to 37° C. in pH 2.5 buffer. However, opposite effect was noticed for both CM and BC.

Data set [2] can be described thus: Intrinsic dissolution profiles (modified Wood's apparatus, USP type II). Type of data set: physicochemical. On the procedure: Objective: The objective of this study was to determine the dissolution characteristics of three different forms of commercially available Creatine including Creatine nitrate (CN), Creatine monohydrate (CM) and buffered Creatine (BC) under different temperature and pH. Methods: Intrinsic dissolution studies were carried out at 37° C. and room temperature in pH 2.5 and 7.4 buffer using modified Wood's apparatus. CN, CM and BC samples (˜0.5 g) were compressed in the dies with constant surface area of 1.21 cm2 using a Carver press at 2000 psi with a dwell time of 10 sec. These dies were placed in the USP dissolution apparatus (type II) containing 140 ml of dissolution media, with paddle speed of 50 rpm. Dissolution medium were collected at definite time intervals over a period of 3 hours for CN and 7 hours for both CM and BC and analyzed for Creatine using a validated HPLC method. Results: A plot of the amount of Creatine dissolved (mg)/surface area (cm2) versus time gives the slope (k′) which is directly proportional to the dissolution rate constant. The k′ (mg/cm2 hr) values for CN, CM and BC in pH 2.5 buffer at room temperature were 293.0±3.48, 59.1±2.06 and 71.1±0.59. At 37° C. these k′ (mg/cm2 hr) values were 327.3±2.66, 97.9±0.88 and 117.9±1.12, respectively. In pH 7.4 buffer, the k′ (mg/cm2 hr) values for CN, CM and BC were 278.9±14.6, 52.1±0.22 and 50.6±0.95 at room temperature and 319.5±14.3, 86.0±5.05 and 96.9±9.28 at 37° C., respectively. Conclusions: The dissolution rates of all three Creatine forms were higher at 37° C. as compared to at room temperature. […] However, the dissolution rate of CN was not affected by the pH of the dissolution media. […] Results of this study further predict a better bioavailability of CN as compared to CM and BC.

Setting [3] is: pH 2.5 buffer, room temperature.
The mark [4] stands for this setting: pH 7.4 buffer, room temperature.

This note sets out measurements from patent US10646508B1, “Method of safely administering nitrate dietary supplements and compositions” (ThermoLife International, LLC, priority 2007, dated 2020).

In the case of `CN(CC(=O)O)C(=N)N.O` [CM, Creatine monohydrate, reference compound], the “pH of samples, after storage” value in data set [1] (37° C. in pH 2.5 buffer, over 12 days) was 4.12±0.01. Besides, in data set [1] (37° C. in pH 2.5 buffer), the “pH of samples, initial” value stood at 3.08±0.01. Besides, the “k' (slope, proportional to intrinsic dissolution rate constant)” value is 97.9±0.88 mg/cm2 hr in data set [2] (pH 2.5 buffer, 37° C.); 59.1±2.06 mg/cm2 hr in data set [2] (setting [3]); 86.0±5.05 mg/cm2 hr in data set [2] (pH 7.4 buffer, 37° C.); 52.1±0.22 mg/cm2 hr in data set [2] (setting [4]).

Regarding `CN(CC(=O)O)C(=N)N.O=[N+]([O-])O` [CN, Creatine nitrate], the entries for the “degradation rate constant (k)” value in data set [1] (37° C. in pH 2.5 buffer) and in data set [1] (40° C. in pH 6.8 buffer) were 0.075 ± 0.001 day⁻¹ and 0.115 ± 0.001 day⁻¹, respectively. Moreover, the “pH of samples, initial” value in data set [1] (40° C. in pH 6.8 buffer) was determined as 2.83±0.01. Also, the “pH of samples, after storage” value in data set [1] (40° C. in pH 6.8 buffer, within a period of 12 days) is recorded as 4.31±0.01. Also, the “k' (slope, proportional to intrinsic dissolution rate constant)” value in data set [2] (pH 2.5 buffer, 37° C.) turned out to be 327.3±2.66 mg/cm2 hr; in data set [2] (setting [3]), 293.0±3.48 mg/cm2 hr; in data set [2] (pH 7.4 buffer, 37° C.), 319.5±14.3 mg/cm2 hr; in data set [2] (setting [4]), 278.9±14.6 mg/cm2 hr.
